Where two headings read alike, the source gives them in different places.
Columns and labels:
[1] = target: T1, WT c-MET (Homo sapiens, UniProt P08581); type: binding; details: adenosine 500 μM, WT c-MET 7.4 μM, compound 100 μM
[2] = target: T1, WT c-MET; type: binding; details: Table 1; LLE = pKd – log D
[3] = system: Rat hepatocytes; assay: Rat hepatocyte Clint; details: for RH: rat hepatocytes; for Hepatocytes Rat: Table 4
[4] = target: T1, WT c-MET; type: biochemical; details: LLE = pIC50 – log D
[5] = Rat plasma pharmacokinetics; details: male, Han Wistar, iv, 0.5 mg/kg
[6] = system: Human hepatocytes; assay: Human hepatocyte Clint; details: Table 4
[7] = Human liver microsome Clint
[8] = system: RON; details: read-out: cell IC50 RON; cited from earlier work
[9] = system: c-MET; details: read-out: cell IC50 c-MET; cited from earlier work
[10] = Table 3, human liver microsomes

For `CC(c1ccccc1)n1cc(-c2cc(F)cc(F)c2)c(=O)[nH]c1=O` (centres unmarked) [Compound 2, 5-(3,5-Difluorophenyl)-1-(1-phenylethyl)pyrimidine-2,4(1H,3H)-dione], the “competition with adenosine for binding to WT c-MET” value [1] was “clear competition”, the “SPR assay LLE WT” value [2] was 2.4 and the RH ([3]; Table 1) was 123 μL/min/10^6 cells.

In the case of `C[C@@H](c1ccccc1)n1cc(-c2cc(F)cc(F)c2)c(=O)[nH]c1=O` [Compound 3, (S)-5-(3,5-Difluorophenyl)-1-(1-phenylethyl)pyrimidine-2,4(1H,3H)-dione], the “SPR assay LLE WT” value [2] is reported as 2.9 and the RH ([3]; Table 1) is reported as 133 μL/min/10^6 cells.

With `O=c1[nH]c(=O)n(Cc2ccccc2)cc1-c1cc(F)cc(F)c1` [Compound 4, 1-Benzyl-5-(3,5-difluorophenyl)pyrimidine-2,4(1H,3H)-dione] the “SPR assay LLE WT” value [2] was <1.0/<1.0 and the RH ([3]; Table 1) was 76.7 μL/min/10^6 cells.

With `CC(c1ccccc1Cl)n1cc(-c2cc(F)cc(F)c2)c(=O)[nH]c1=O` (centres unmarked) [Compound 5, 1-(1-(2-Chlorophenyl)ethyl)-5-(3,5-difluorophenyl)pyrimidine-2,4(1H,3H)-dione] the “SPR assay LLE WT” value [2] was 0.82 and the RH ([3]; Table 1) was 227 μL/min/10^6 cells.

With `CC(c1cccc(Cl)c1)n1cc(-c2cc(F)cc(F)c2)c(=O)[nH]c1=O` (centres unmarked) [Compound 7, 1-(1-(3-Chlorophenyl)ethyl)-5-(3,5-difluorophenyl)pyrimidine-2,4(1H,3H)-dione] the “SPR assay LLE WT” value [2] was 2.2 and the RH ([3]; Table 1) was 177 μL/min/10^6 cells.

With `CC(c1cccc(-c2cc[nH]n2)c1)n1cc(-c2cc(F)cc(F)c2)c(=O)[nH]c1=O` (centres unmarked) [Compound 8, 1-(1-(3-(1H-Pyrazol-3-yl)phenyl)ethyl)-5-(3,5-difluorophenyl)pyrimidine-2,4(1H,3H)-dione] the “SPR assay LLE WT” value [2] was 2.1 and the RH ([3]; Table 1) was 24.7 μL/min/10^6 cells.

For `CC(c1cccc(-c2cn[nH]c2)c1)n1cc(-c2cc(F)cc(F)c2)c(=O)[nH]c1=O` (centres unmarked) [Compound 9, 1-(1-(3-(1H-Pyrazol-4-yl)phenyl)ethyl)-5-(3,5-difluorophenyl)pyrimidine-2,4(1H,3H)-dione], the “SPR assay LLE WT” value [2] was 2.7 and the RH ([3]; Table 1) was 22.3 μL/min/10^6 cells.

In the case of `CC(c1cccc(-c2c[nH]cn2)c1)n1cc(-c2cc(F)cc(F)c2)c(=O)[nH]c1=O` (centres unmarked) [Compound 10, 1-(1-(3-(1H-Imidazol-5-yl)phenyl)ethyl)-5-(3,5-difluorophenyl)pyrimidine-2,4(1H,3H)-dione], the “SPR assay LLE WT” value [2] is reported as 3.1 and the RH ([3]; Table 1) is reported as 6.03 μL/min/10^6 cells.

With `CC(c1ccccc1)n1cc(-c2ccccc2)c(=O)[nH]c1=O` (centres unmarked) [Compound 11, 5-Phenyl-1-(1-phenylethyl)pyrimidine-2,4(1H,3H)-dione] the RH ([3]; Table 1) was 185 μL/min/10^6 cells.

With `CC(c1ccccc1)n1cc(-c2ccccn2)c(=O)[nH]c1=O` (centres unmarked) [Compound 12, 1-(1-Phenylethyl)-5-(pyridin-2-yl)pyrimidine-2,4(1H,3H)-dione] the “SPR assay LLE WT” value [2] was 3.2 and the RH ([3]; Table 1) was 300 μL/min/10^6 cells.

`CC(c1ccccc1)n1cc(-c2ncccn2)c(=O)[nH]c1=O` (centres unmarked) [Compound 13, 1′-(1-Phenylethyl)-[2,5′-bipyrimidine]-2′,4′(1′H,3′H)-dione] showed an RH ([3]; Table 1) of 4.67 μL/min/10^6 cells.

In the case of `CC(c1ccccc1)n1cc(-c2ccc3[nH]ccc3c2)c(=O)[nH]c1=O` (centres unmarked) [Compound 14, 5-(1H-Indol-5-yl)-1-(1-phenylethyl)pyrimidine-2,4(1H,3H)-dione], the “SPR assay LLE WT” value [2] is reported as 3.4/3.4 and the RH ([3]; Table 1) is reported as 217 μL/min/10^6 cells.

In the case of `CC(c1ccccc1)n1cc(-c2cccc3cn[nH]c23)c(=O)[nH]c1=O` (centres unmarked) [Compound 15, 5-(1H-Indazol-7-yl)-1-(1-phenylethyl)pyrimidine-2,4(1H,3H)-dione], the “ADP-Glo assay LLE WT” value ([4]; Table 2) is reported as 3.5, the “SPR assay LLE WT” value [2] is reported as 4.2 and the RH ([3]; Table 1) is reported as 46.1 μL/min/10^6 cells.

With `CC(c1cccc(-c2c[nH]cn2)c1)n1cc(-c2cccc3cn[nH]c23)c(=O)[nH]c1=O` (centres unmarked) [Compound 16, 1-(1-(3-(1H-Imidazol-5-yl)phenyl)ethyl)-5-(1H-indazol-7-yl)pyrimidine-2,4(1H,3H)-dione] the “SPR assay LLE WT” value [2] was 4.1 and the RH ([3]; Table 1) was 5.84 μL/min/10^6 cells.

For `CC(c1ccccc1)n1cc(-c2cccc3c(F)n[nH]c23)c(=O)[nH]c1=O` (centres unmarked) [Compound 17, 5-(3-Fluoro-1H-indazol-7-yl)-1-(1-phenylethyl)pyrimidine-2,4(1H,3H)-dione], the “ADP-Glo assay LLE WT” value ([4]; Table 2) was 3.1 and the RH ([3]; Table 2) was 49.4 μL/min/10^6 cells.

For `Cc1n[nH]c2c(-c3cn(C(C)c4ccccc4)c(=O)[nH]c3=O)cccc12` (centres unmarked) [Compound 18, 5-(3-Methyl-1H-indazol-7-yl)-1-(1-phenylethyl)pyrimidine-2,4(1H,3H)-dione], the “ADP-Glo assay LLE WT” value ([4]; Table 2) was 3.6 and the RH ([3]; Table 2) was 37.0 μL/min/10^6 cells.

For `CC(c1ccccc1)n1cc(-c2cccc3c(C#N)n[nH]c23)c(=O)[nH]c1=O` (centres unmarked) [Compound 19, 7-(2,4-Dioxo-1-(1-phenylethyl)-1,2,3,4-tetrahydropyrimidin-5-yl)-1H-indazole-3-carbonitrile], the “ADP-Glo assay LLE WT” value ([4]; Table 2) was 3.4 and the RH ([3]; Table 2) was 41.4 μL/min/10^6 cells.

With `CC(c1ccccc1)n1cc(-c2c(F)ccc3cn[nH]c23)c(=O)[nH]c1=O` (centres unmarked) [Compound 20, 5-(6-Fluoro-1H-indazol-7-yl)-1-(1-phenylethyl)pyrimidine-2,4(1H,3H)-dione] the “ADP-Glo assay LLE WT” value ([4]; Table 2) was 3.2 and the RH ([3]; Table 2) was 28.3 μL/min/10^6 cells.

In the case of `CC(c1ccccc1)n1cc(-c2cc(F)cc3cn[nH]c23)c(=O)[nH]c1=O` (centres unmarked) [Compound 21, 5-(5-Fluoro-1H-indazol-7-yl)-1-(1-phenylethyl)pyrimidine-2,4(1H,3H)-dione], the “ADP-Glo assay LLE WT” value ([4]; Table 2) is reported as 3.9 and the RH ([3]; Table 2) is reported as 14.0 μL/min/10^6 cells.

For `CC(c1ccccc1)n1cc(-c2cc(F)cc3c(C#N)n[nH]c23)c(=O)[nH]c1=O` (centres unmarked) [Compound 22, 7-(2,4-Dioxo-1-(1-phenylethyl)-1,2,3,4-tetrahydropyrimidin-5-yl)-5-fluoro-1H-indazole-3-carbonitrile], the “ADP-Glo assay LLE WT” value ([4]; Table 2) was 3.8 and the RH ([3]; Table 2) was 51.4 μL/min/10^6 cells.

With `CC(c1ccccn1)n1cc(-c2cc(F)cc3c(C#N)n[nH]c23)c(=O)[nH]c1=O` (centres unmarked) [Compound 23, 7-(2,4-Dioxo-1-(1-(pyridin-2-yl)ethyl)-1,2,3,4-tetrahydropyrimidin-5-yl)-5-fluoro-1H-indazole-3-carbonitrile] the “ADP-Glo assay LLE WT” value ([4]; Table 3) was 3.8 and the RH ([3]; Table 3) was 3.08 μL/min/10^6 cells.

In the case of `CC(c1ccc(F)cc1)n1cc(-c2cc(F)cc3c(C#N)n[nH]c23)c(=O)[nH]c1=O` (centres unmarked) [Compound 24, 5-Fluoro-7-(1-(1-(4-fluorophenyl)ethyl)-2,4-dioxo-1,2,3,4-tetrahydropyrimidin-5-yl)-1H-indazole-3-carbonitrile], the “ADP-Glo assay LLE WT” value ([4]; Table 3) is reported as 3.4 and the RH ([3]; Table 3) is reported as 4.40 μL/min/10^6 cells.

In the case of `C[C@@H](c1ccc(F)cc1)n1cc(-c2cc(F)cc3c(C#N)n[nH]c23)c(=O)[nH]c1=O` [Compound 25, (S)-5-Fluoro-7-(1-(1-(4-fluorophenyl)ethyl)-2,4-dioxo-1,2,3,4-tetrahydropyrimidin-5-yl)-1H-indazole-3-carbonitrile], the “ADP-Glo assay LLE WT” value ([4]; Table 3) is reported as 3.8, the clearance [5] is reported as 3 mL/min/kg and the “Hepatocytes Human” value [6] is reported as 2.48 μL/min/10^6 cells. The RH ([3]; Table 3) was 5.13 μL/min/10^6 cells and the “Hepatocytes Rat” value [3] was 5.13 μL/min/10^6 cells.

In the case of `CC(c1ccc(F)cc1)n1cc(-c2cc(F)cc3cn[nH]c23)c(=O)[nH]c1=O` (centres unmarked) [Compound 26, 5-(5-Fluoro-1H-indazol-7-yl)-1-(1-(4-fluorophenyl)ethyl)pyrimidine-2,4(1H,3H)-dione], the “ADP-Glo assay LLE WT” value ([4]; Table 3) is reported as 3.5 and the RH ([3]; Table 3) is reported as 11.9 μL/min/10^6 cells.

For `C#Cc1n[nH]c2c(-c3cn(C(C)c4ccccc4)c(=O)[nH]c3=O)cccc12` (centres unmarked) [Compound 28, 5-(3-Ethynyl-1H-indazol-7-yl)-1-(1-phenylethyl)pyrimidine-2,4(1H,3H)-dione], the “ADP-Glo assay LLE WT” value ([4]; Table 3) was 4.2 and the RH ([3]; Table 3) was 9.10 μL/min/10^6 cells.

In the case of `C#Cc1n[nH]c2c(-c3cn(C(C)c4ccccc4)c(=O)[nH]c3=O)cc(F)cc12` (centres unmarked) [Compound 29, 5-(3-Ethynyl-5-fluoro-1H-indazol-7-yl)-1-(1-phenylethyl)pyrimidine-2,4(1H,3H)-dione], the clearance [5] is reported as 60 mL/min/kg, the “Hepatocytes Human” value [6] is reported as 4.27 μL/min/10^6 cells and the RH ([3]; Table 3) is reported as 5.99 μL/min/10^6 cells. For the same compound, the “Hepatocytes Rat” value [3] was 5.99 μL/min/10^6 cells, the HLM [7, 10] was 12.2 µL/min/mg and the HLM ([7]; Table 4) was 12.2 µL/min/mg.

`C#Cc1n[nH]c2c(-c3cn([C@@H](C)c4ccccc4)c(=O)[nH]c3=O)cc(F)cc12` [Compound 30, (S)-5-(3-Ethynyl-5-fluoro-1H-indazol-7-yl)-1-(1-phenylethyl)pyrimidine-2,4(1H,3H)-dione] showed an RH ([3]; Table 3) of 15.0 μL/min/10^6 cells.

In the case of `C#Cc1n[nH]c2c(-c3cn(C(C)c4ccccn4)c(=O)[nH]c3=O)cc(F)cc12` (centres unmarked) [Compound 31, 5-(3-Ethynyl-5-fluoro-1H-indazol-7-yl)-1-(1-(pyridin-2-yl)ethyl)pyrimidine-2,4(1H,3H)-dione], the “ADP-Glo assay LLE WT” value ([4]; Table 3) is reported as 4.8, the clearance [5] is reported as 13 mL/min/kg and the “Hepatocytes Human” value [6] is reported as 1.29 μL/min/10^6 cells. The RH ([3]; Table 3) was 4.81 μL/min/10^6 cells, the “Hepatocytes Rat” value [3] was 4.81 μL/min/10^6 cells and the HLM [7, 10] was <3.00 µL/min/mg. The HLM ([7]; Table 4) was <3.00 µL/min/mg.

In the case of `C#Cc1n[nH]c2c(-c3cn([C@@H](C)c4ccccn4)c(=O)[nH]c3=O)cc(F)cc12` [Compound 32, (S)-5-(3-Ethynyl-5-fluoro-1H-indazol-7-yl)-1-(1-(pyridin-2-yl)ethyl)pyrimidine-2,4(1H,3H)-dione], the “ADP-Glo assay LLE WT” value ([4]; Table 3) is reported as 5.1 and the RH ([3]; Table 3) is reported as 6.07 μL/min/10^6 cells.

Reference: PMC10350928 (Journal of Medicinal Chemistry, 2023)
